From patent US7745390B2, “Antimicrobial peptides” (priority 2005, dated 2010)
Values after ≈ are worked out from the molar mass of the structure shown. Square brackets hold non-standard residues; d marks the D form. Ends that are not written are not given here. Peptide text beside a SMILES is read from it.

How the values were obtained:
B. cereus [1] = experiment: CFU assay in 10% FCS/DMEM; assay type: cell-based; details: 3 hrs
Experimental: (§1) The CFU assay is the “gold standard” for evaluating antibiotics. Briefly, bacteria are grown overnight in rich medium, such as LB, and then diluted and grown in log phase for 2-4 hours. Cultures are set up as above, with the initial culture media being 10 mM phosphate buffer/0.03% LB; DMEM or RPMI; or DMEM or RPMI plus 10% serum (fetal calf, human, or mouse). After various periods of time, but generally 3 hours or less, aliquots are removed, diluted in LB at various dilutions, and plated on LB agar plates. Plates are incubated overnight at 37° C. and counted on an automatic colony counter.
(§2) Three preferred peptides G11.46, G12.21 and G14.15, discussed above, were further tested for antimicrobial efficacy under various conditions using the 10% FCS/DMEM assay as described under CFU assay. The incubation times with the bacteria and peptide was three hours, at which time the bacteria were diluted and plated on agar. […] The MIC for each compound is highlighted.

bacterial strains = experiment: organism not typed; assay type: cell-based
Experimental: as §2
Table 9 below repeats some data presented above in Tables 6, 7, and 8.

B. cereus [2] = assay type: cell-based; details: pH 7.2
Procedure, shortened: (§3)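 Peptides were diluted in 10 mM phosphate buffer, pH 7.2 with 0.03% LB and incubated with bacteria (~5×10^6 CFU/ml) for 3 h at 37 °C in microtiter wells. LB was then added, growth continued overnight, and OD 600 nm was read. MIC is the lowest concentration with no growth; IC50 gives 50% growth versus medium.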

E. coli DH5a = assay type: cell-based; details: DH5a, pH 7.2
Procedure, shortened: as §3

Salmonella = assay type: cell-based, S. typhimurium; details: pH 7.2
Procedure, shortened: as §3

bacteria [3] = experiment: Activity in DMEM and RPMI media (lysis of bacteria); assay type: cell-based; set-up: key to Active in DMEM: YES: Active in DMEM; a blank means no activity; details: Table 2; tested in DMEM and RPMI
Experimental: as §1
In the column “Active in DMEM”, a blank means no activity. MAP stands for multiple antigenic peptide, where a number of identical peptide chains are synthesized and joined to a common core (like a dendrimer).
The peptides listed in Table 2 were tested in DMEM and RPMI, media that approximate blood and tissue conditions in vivo and those that were active under these conditions are listed in the last column (active in DMEM). […] No peptides that were all L-isomer peptides lysed bacteria in DMEM supplemented with serum.
The hydrophobic moment is a measure of amphipathicity and indicates how well the hydrophobic residues fall on one side of the helix while the hydrophilic residues fall on the opposite side is shown in column 7. This was determined using the Membrane Explorer Program (http://blanco.biomol.uci.edu/mpex/). A high number indicates a high hydrophobic moment. Column 8 again (like Table 2) indicates which of these peptides is active in DMEM.

bacteria [4] = experiment: Activity in serum containing media (10% FCS in DMEM or RPMI); assay type: cell-based; details: 10% FCS in DMEM or RPMI
Experimental: as §1
Tests were conducted in low salt concentrations so that active peptide candidates could be identified more readily. It is important for in vivo applications that the present antimicrobial peptides be active in physiological salt concentrations (150 mM) as well as in the presence of other tissue components, such as blood plasma (serum). Serum may contain proteases that destroy peptides; the use of D-amino acids can improve protease resistance. See G12.21. […] Also active were G11.6, G11.26, G11.29, G11.30, G11.34, G11.35, G12.11, G12.19, G12.20 and G12.21. […]

Molecule: CN[C@H](CC(C)C)C(=O)N[C@H]1C(=O)N[C@@H](CC(N)=O)C(=O)N[C@H]2C(=O)N[C@H]3C(=O)N[C@H](C(=O)N[C@H](C(=O)O)c4cc(O)cc(O)c4-c4cc3ccc4O)[C@H](O)c3ccc(c(Cl)c3)Oc3cc2cc(c3O[C@@H]2O[C@H](CO)[C@@H](O)[C@H](O)[C@H]2O[C@H]2C[C@](C)(N)[C@H](O)[C@H](C)O2)Oc2ccc(cc2Cl)[C@H]1O [vancomycin, reference compound]
- % Survival (CFU Assay) (B. cereus [1]; 0.08 uM): 97.67%
- % Survival (CFU Assay) (B. cereus [1]; 0.16 uM): 113.37%
- % Survival (CFU Assay) (B. cereus [1]; 0.32 uM): 79.59%
- % Survival (CFU Assay) (B. cereus [1]; 0.63 uM): 63.73%
- % Survival (CFU Assay) (B. cereus [1]; 1.25 uM): 9.06%
- % Survival (CFU Assay) (B. cereus [1]; 2.5 uM): 1.09%
- MIC (bacterial strains; 3 h): > 10 µM
- MIC (bacterial strains; Bacillus cereus, ATCC53522, 3 h): 2.5 µM (≈ 3.62 µg/mL)

Molecule: CSCC[C@H](NC(=O)[C@H](Cc1ccccc1)NC(=O)[C@@H](CCCNC(=N)N)NC(=O)[C@@H](CCCNC(=N)N)NC(=O)[C@H](CO)NC(=O)[C@@H](NC(=O)[C@H](CC(=O)O)NC(=O)[C@H](CCCNC(=N)N)NC(=O)[C@H](Cc1c[nH]c2ccccc12)NC(=O)[C@H](CCCNC(=N)N)NC(=O)[C@H](CO)NC(=O)[C@H](CCCNC(=N)N)NC(=O)CNC(=O)[C@@H](NC(=O)[C@H](CCCNC(=N)N)NC(=O)[C@H](CO)NC(=O)[C@@H](NC(=O)[C@H](CCCNC(=N)N)NC(=O)[C@@H](NC(=O)[C@@H]1CCCN1C(=O)[C@@H]1CCCN1C(=O)[C@H](CCCNC(=N)N)NC(=O)[C@H](CO)NC(=O)[C@@H](NC(=O)[C@H](CO)NC(=O)[C@H](CCCNC(=N)N)NC(=O)[C@@H](N)CCC(N)=O)C(C)C)[C@@H](C)O)C(C)C)[C@@H](C)O)C(C)C)C(=O)N[C@@H](CCCNC(=N)N)C(=O)N[C@@H](CCCNC(=N)N)C(=O)O [Peptide G8.11] (H-QRSVSRPPTRVSRTGRSRWRDVS[dR][dR]FMRR-OH; N-terminus and C-terminus assumed)
- B. cereus MIC (B. cereus [2]): 0.75 µM
- IC50 (B. cereus [2]): 0.45 µM
- E. coli DH5a MIC (E. coli DH5a): 0.35 µM
- IC50 (E. coli DH5a): 0.21 µM
- IC50 (Salmonella): 0.22 µM
- Salmonella MIC (Salmonella): 0.35 µM
- Active in DMEM (bacteria [3]): YES
- active in serum containing media (bacteria [4]): active

Molecule: CSCC[C@H](NC(=O)[C@H](Cc1ccccc1)NC(=O)[C@@H](CCCNC(=N)N)NC(=O)[C@@H](CCCNC(=N)N)NC(=O)[C@H](CO)NC(=O)[C@H](NC(=O)[C@@H](CCCNC(=N)N)NC(=O)[C@@H](N)CCCNC(=N)N)C(C)C)C(=O)N[C@H](CCCNC(=N)N)C(=O)N[C@@H](CCCNC(=N)N)C(=O)O [Peptide G11.34, RrvSrrFMrR] (H-R[dR][dV]S[dR][dR]FM[dR]R-OH; N-terminus and C-terminus assumed)
- B. cereus MIC (B. cereus [2]): >10 µM
- IC50 (B. cereus [2]): > 10 µM
- E. coli DH5a MIC (E. coli DH5a): 0.7 µM
- IC50 (E. coli DH5a): 0.41 µM
- IC50 (Salmonella): 1.6 µM
- Salmonella MIC (Salmonella): 2.8 µM
- Active in DMEM (bacteria [3]): YES
- active in serum containing media (bacteria [4]): active

Molecule: RDVSRRFMRRGSRDVSRRFMRRGSRDVSRRFMRR [Peptide G11.26]
- B. cereus MIC (B. cereus [2]): 0.35 µM
- IC50 (B. cereus [2]): 0.21 µM
- E. coli DH5a MIC (E. coli DH5a): 0.7 µM
- IC50 (E. coli DH5a): 0.4 µM
- IC50 (Salmonella): 0.21 µM
- Salmonella MIC (Salmonella): 0.35 µM
- Active in DMEM (bacteria [3]): YES
- active in serum containing media (bacteria [4]): active

Molecule: RRVSRPPPRRYRSRRPRRLV [Peptide G12.19]
- B. cereus MIC (B. cereus [2]): 0.35 µM
- IC50 (B. cereus [2]): 0.21 µM
- E. coli DH5a MIC (E. coli DH5a): 0.75 µM
- IC50 (E. coli DH5a): 0.22 µM
- IC50 (Salmonella): 0.73 µM
- Salmonella MIC (Salmonella): 1.38 µM
- Active in DMEM (bacteria [3]): YES
- active in serum containing media (bacteria [4]): active

Molecule: RRVSRPPMRRYRSRRPRRLV [Peptide G12.20]
- B. cereus MIC (B. cereus [2]): 0.35 µM
- IC50 (B. cereus [2]): 0.21 µM
- E. coli DH5a MIC (E. coli DH5a): 0.73 µM
- IC50 (E. coli DH5a): 0.23 µM
- IC50 (Salmonella): 0.42 µM
- Salmonella MIC (Salmonella): 1.4 µM
- Active in DMEM (bacteria [3]): YES
- active in serum containing media (bacteria [4]): active

Molecule: CSCC[C@@H](NC(=O)[C@H](Cc1ccccc1)NC(=O)[C@@H](CCCNC(=N)N)NC(=O)[C@@H](CCCNC(=N)N)NC(=O)[C@H](CO)NC(=O)[C@H](NC(=O)[C@H](CCCNC(=N)N)NC(=O)[C@@H](N)CCCNC(=N)N)C(C)C)C(=O)N[C@@H](CCCNC(=N)N)C(=O)N[C@@H](CCCNC(=N)N)C(=O)O [Peptide G11.35, RRvSrrFmRR] (H-RR[dV]S[dR][dR]F[dM]RR-OH; N-terminus and C-terminus assumed)
- B. cereus MIC (B. cereus [2]): >10 µM
- IC50 (B. cereus [2]): > 10 µM
- E. coli DH5a MIC (E. coli DH5a): 0.7 µM
- IC50 (E. coli DH5a): 0.41 µM
- IC50 (Salmonella): 3.25 µM
- Salmonella MIC (Salmonella): 5.7 µM
- Active in DMEM (bacteria [3]): YES
- active in serum containing media (bacteria [4]): active

Molecule: RDVSRRFMRRGSRDVSRRFMRR [Peptide G11.6]
- B. cereus MIC (B. cereus [2]): 2.4 µM
- IC50 (B. cereus [2]): 0.89 µM
- E. coli DH5a MIC (E. coli DH5a): 0.7 µM
- IC50 (E. coli DH5a): 0.45 µM
- IC50 (Salmonella): 0.89 µM
- Salmonella MIC (Salmonella): 1.4 µM
- Active in DMEM (bacteria [3]): YES
- active in serum containing media (bacteria [4]): active

Molecule: CSCC[C@H](NC(=O)[C@H](Cc1ccccc1)NC(=O)[C@@H](CCCNC(=N)N)NC(=O)[C@@H](CCCNC(=N)N)NC(=O)[C@H](CO)NC(=O)[C@@H](NC(=O)[C@H](CC(=O)O)NC(=O)[C@H](CCCNC(=N)N)NC(=O)[C@H](Cc1c[nH]c2ccccc12)NC(=O)[C@H](CCCNC(=N)N)NC(=O)[C@H](CO)NC(=O)[C@H](CCCNC(=N)N)NC(=O)CNC(=O)[C@@H](NC(=O)[C@H](CCCNC(=N)N)NC(=O)[C@H](CO)NC(=O)[C@@H](NC(=O)[C@H](CCCNC(=N)N)NC(=O)[C@@H](NC(=O)[C@@H](C)NC(=O)[C@@H](C)NC(=O)[C@H](CCCNC(=N)N)NC(=O)[C@H](CO)NC(=O)[C@@H](NC(=O)[C@H](CO)NC(=O)[C@H](CCCNC(=N)N)NC(=O)[C@@H](N)CCC(N)=O)C(C)C)[C@@H](C)O)C(C)C)[C@@H](C)O)C(C)C)C(=O)N[C@@H](CCCNC(=N)N)C(=O)N[C@@H](CCCNC(=N)N)C(=O)O [Peptide G8.8, QRSVSRaaTRVSRTGRSRWRDVSrrFMRR] (H-QRSVSR[dA][dA]TRVSRTGRSRWRDVS[dR][dR]FMRR-OH; N-terminus and C-terminus assumed)
- B. cereus MIC (B. cereus [2]): 2.5 µM
- IC50 (B. cereus [2]): 1.7 µM
- E. coli DH5a MIC (E. coli DH5a): 0.35 µM
- IC50 (E. coli DH5a): 0.21 µM
- IC50 (Salmonella): 0.42 µM
- Salmonella MIC (Salmonella): 0.7 µM
- Active in DMEM (bacteria [3]): YES
- active in serum containing media (bacteria [4]): active

Molecule: RRVSRRFMRRYRSRRPRRLV [Peptide G12.11]
- B. cereus MIC (B. cereus [2]): 0.35 µM
- IC50 (B. cereus [2]): 0.21 µM
- E. coli DH5a MIC (E. coli DH5a): 0.75 µM
- IC50 (E. coli DH5a): 0.21 µM
- IC50 (Salmonella): 0.41 µM
- Salmonella MIC (Salmonella): 0.65 µM
- Active in DMEM (bacteria [3]): YES
- active in serum containing media (bacteria [4]): active
